Results on 11 compounds are retold here after US10548317B2, “Pesticidally active pyrazole derivatives” (SYNGENTA PARTICIPATIONS AG, priority 2015, dated 2020).

Where only a bound is given, the exact number is not on record here.

The term melting point denotes the temperature, or range, at which the solid turns liquid. Compound `COc1sc(-c2cnn(-c3c(C(F)(F)F)c(C(F)(F)C(F)(F)F)nn3C)c2)cc1C(=O)NC1CC1` [Compound 56] displayed a melting point of 152 to 153 °C. Next, `Cn1nc(C(F)(F)C(F)(F)F)c(C(F)(F)F)c1-n1cc(-c2cc(C(=O)NC3CC3)c(Br)s2)cn1` [Compound 57]: 192 to 193 °C; `Cn1nc(C(F)(F)C(F)(F)F)c(C(F)(F)F)c1-n1cc(-c2cc(C(=O)NC3CC3)c(C#N)s2)cn1` [Compound 59]: 171 to 172 °C.

For `Cn1nc(C(F)(F)C(F)(F)F)c(C(F)(F)F)c1-n1cc(-c2cc(C(=O)NC3(C#N)CC3)c(Br)s2)cn1` [Compound 61], the melting point was 184 to 185 °C. For the compound `Cn1nc(C(F)(F)C(F)(F)F)c(C(F)(F)F)c1-n1cc(-n2cnc(C(=O)NC3(C#N)CC3)c2)cn1` [Compound 62], the melting point was in the range of 195 to 197 °C. The value for `Cn1nc(C(F)(F)C(F)(F)F)c(C(F)(F)F)c1-n1cc(-c2cc(C(=O)NC3CC3)sn2)cn1` [Compound 63] was 146 to 148 °C; that for `Cn1nc(C(F)(F)C(F)(F)F)c(C(F)(F)F)c1-n1cc(-c2cnc(C(=O)NC3(C#N)CC3)s2)cn1` [Compound 64] was 158 to 159 °C.

In the case of `Cn1nc(C(F)(F)C(F)(F)F)c(C(F)(F)F)c1-n1cc(-c2cnc(C(=O)NC3CC3)s2)cn1` [Compound 65], the melting point lay within 132 to 133 °C. Compound `Cn1nc(C(F)(F)C(F)(F)F)c(C(F)(F)F)c1-n1cc(-c2cc(C(=O)NC3CC3)no2)cn1` [Compound 66] had a melting point of 181 to 183 °C.

As to `Cn1nc(C(F)(F)C(F)(F)F)c(C(F)(F)F)c1-n1cc(-n2cc(C(=O)NC3(C#N)CC3)nn2)cn1` [Compound 67], the melting point is above 250 °C. `Cn1nc(C(F)(F)C(F)(F)F)c(C(F)(F)F)c1-n1cc(-n2cc(C(=O)NC3CC3)nn2)cn1` [Compound 68] gave a melting point of 242 to 244 °C.
